The text below walks through data of US20220372585A1, “Sensors for Aromatic Compounds and Methods of Making and Using Same” (Washington University, priority 2021, published 2022).

The subject of test [1] is TynA-FeaR sensors (best performing variants). The test can be described thus: TynA-FeaR sensor activity and specificity in richer media, amines and carboxylic acids. In kind it is cell-based, E. coli. The note with it: 1 mM, 24 h; minimal medium with casamino acids and LB medium; FIG. 29. From the text: FIG. 29A-FIG. 29B. TynA-FeaR sensor activity and specificity in richer media, related to FIG. 6A-FIG. 6E. […] PtynA was regulated by the specified variants of TynA and FeaR. The response of the G494S TynA mutant sensors was not determined (ND) for DOPAC, PAA, HPAA, or IAA. Values and error bars are the average and standard deviation of biological triplicate, respectively.
To further confirm the specificity of the best performing sensors, the response of each to the four amines and the four respective carboxylic acids, 3,4-dihydroxyphenylacetic acid (DOPAC), phenylacetic acid (PAA), 4-hydroxyphenylacetic acid (HPAA), and indole-3-acetic acid (IAA) was tested in minimal medium with casamino acids and LB medium (see e.g., FIG. 29A-FIG. 29B). […] All mutant sensors remained specific to PEA or Tyra in minimal medium with casamino acids.
(§1) Flow cytometry was performed as previously described. […] Cytometry data was gated by forward and side scatter.

The test system of test [2] is G494S TynA with A81T FeaR. It counts as cell-based, E. coli MG1655. As to conditions: G494S*; 24 h; FIG. 4C. The protocol: as §1
The target in a further test is T1, E274Q+T14V TyrR (Escherichia coli, UniProt P07604, E274Q/T14V).
T1 construct: expressed in transfected cells; host or cells: E. coli Nissle 1917 (EcN), plasmid pAGR157
T1 sequence (P07604 whole entry T14V/E274Q): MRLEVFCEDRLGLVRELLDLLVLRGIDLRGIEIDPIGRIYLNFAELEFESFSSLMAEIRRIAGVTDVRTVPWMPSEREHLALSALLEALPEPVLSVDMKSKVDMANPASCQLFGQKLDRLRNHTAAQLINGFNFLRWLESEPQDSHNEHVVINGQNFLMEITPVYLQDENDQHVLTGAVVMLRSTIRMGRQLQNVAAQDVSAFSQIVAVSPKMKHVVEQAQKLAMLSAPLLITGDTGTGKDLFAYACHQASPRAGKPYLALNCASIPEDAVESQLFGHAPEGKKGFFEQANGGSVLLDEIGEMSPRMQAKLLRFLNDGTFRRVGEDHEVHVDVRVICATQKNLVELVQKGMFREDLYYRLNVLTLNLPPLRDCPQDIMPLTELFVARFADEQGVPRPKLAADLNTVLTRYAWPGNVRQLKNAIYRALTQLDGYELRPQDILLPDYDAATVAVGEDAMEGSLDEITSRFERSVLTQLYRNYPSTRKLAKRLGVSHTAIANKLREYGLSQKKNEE
Nature of the test: cell-based. It counts as cell-based, E. coli. The note with it: ligand alone, listed as Tyr. The protocol:
(§2) Everything but (Eb) medium was prepared by supplementing M9 minimal medium with 1 mM MgSO4, […]), 0.4% w/v glucose, and all non-aromatic amino acids (0.8 mM alanine, 5 mM arginine, 0.4 mM asparagine, 0.4 mM aspartate, 0.1 mM cysteine, 0.6 mM glutamate, 0.6 mM glutamine, 0.8 mM glycine, 0.2 mM histidine, 0.4 mM isoleucine, 0.8 mM leucine, 0.4 mM lysine, 0.2 mM methionine, 0.4 mM proline, 10 mM serine, 0.4 mM threonine, and 0.6 mM valine). […] Experimental cultures were prepared by diluting overnight cultures 200× into 0.6 mL fresh Eb medium supplemented with the respective ligands (Phe and Tyr) in 2 mL 96-deep well plates (Eppendorf, Hamburg, Germany). Cultures were grown for 8 h at 37° C. and 250 rpm before sampled for fluorimetry or flow cytometry analysis. All medium was supplemented with the relevant antibiotics for plasmid maintenance ([…]).
(§3) […] culture samples were collected and transferred to 96-well assay microplates (clear, flat bottom black, Greiner Bio-One). The fluorescence and culture absorbance (Abs) were measured using a Tecan microplate reader (Infinite M200 Pro) as previously described. The fluorescence of GFP was measured with an excitation at 483 nm and emission at 530 nm. The Abs of the samples was measured at 600 nm. The measured fluorescence was normalized by dividing by the Abs and subtracting the same ratio obtained from non-fluorescent wild-type cells (Equation 1).
as §1

The next test concerns the target T2, wild-type TyrR (Escherichia coli, UniProt P07604).
T2 construct: tyrR (WT); expressed in transfected cells; host or cells: E. coli Nissle 1917 (EcN)
Nature of the test: cell-based. In kind it is cell-based, E. coli. The protocol:
as §2, §3, §1

The next test has as its target T3, R10F TyrR (Escherichia coli, UniProt P07604, R10F).
T3 construct: expressed in transfected cells; host or cells: E. coli Nissle 1917 (EcN), plasmid pAGR473
The test can be described thus: cell-based. In kind it is cell-based, E. coli. The protocol:
as §2, §3, §1

For another test, the target named is T4, E274Q+D103S TyrR (Escherichia coli, UniProt P07604, D103S/E274Q).
T4 construct: expressed in transfected cells; host or cells: E. coli Nissle 1917 (EcN), plasmid pAGR159
T4 sequence (P07604 whole entry D103S/E274Q): as the sequence (P07604 whole entry T14V/E274Q) above, with V14T, D103S counted along it
Nature of the test: cell-based. It counts as cell-based, E. coli. As to conditions: ligand alone, listed as Tyr. The protocol: as §2, §3, §1

In test [3] the test system is wild-type TynA and A81L FeaR. Nature of the test: microbe, parasite or virus in culture. It counts as cell-based, E. coli MG1655. The note with it: A81L FeaR; 24 h; FIG. 5C. The protocol:
as §1

In another test the test system is PtynA. The test can be described thus: Ligand specificity of 20 FeaR variants at the 81st position with wild-type TynA, fluorescence from PtynA. As to conditions: 0.25 mM DA, PEA, Tyra, Trypta, 24 h. In kind it is cell-based, E. coli.
Text: FIG. 5A-FIG. 5D. Engineering FeaR to identify improved phenylethylamine-specific sensors (A) Computationally predicted ligand-binding region of FeaR. Key residues are shown with (magenta) and without (green) phenylethylamine-aldehyde (PEA-aldehyde; cyan) complexed. The structure was predicted using the Robetta web server. Ligand docking was modeled using the Rosetta Ligand Docking Server hosted by ROSIE. The image was generated using PyMOL. […] PtynA was regulated by wild-type TynA and 20 different FeaR variants with the specified amino acid in the 81st position. Residues for each group are listed from left to right in order of increasing size. Non-zero values and error bars are the average and standard deviation of biological triplicate, respectively. Variants with significant expression in response to PEA were determined by unpaired t tests (p<0.05). (C) Transfer curve of PtynA after 24 h of induction with DA, PEA, Tyra, and Trypta. PtynA was regulated by wild-type TynA and the A81L FeaR mutant. Points represent experimental data while the line represents the fitted curve (see e.g., TABLE 2). […] Values and error bars are the average and standard deviation of biological triplicate, respectively. (D) Reorganization of […] with respect to the size and hydropathy index of the 81st residue (see e.g., TABLE 3). The blue area represents characteristic values that permit binding of Tyra. See also FIG. 20-FIG. 25.
Noting the PEA selectivity given by the A81T mutation and the smallest size of the PEA-aldehyde (no OH group), followed by that of Tyra—(1 OH), DA—(2 OHs), and Trypta—(additional 5-membered ring) aldehyde (see e.g., FIG. 3A), it was hypothesized that small residues, including alanine as in wild-type FeaR, would cause ligand promiscuity, with ligand size-dependent response as shown in FIG. 3D. Slightly larger residues such as threonine would have improved selectivity toward the smallest PEA-aldehyde, but much larger or charged residues may fully eliminate ligand binding. It was also hypothesized that the hydropathy index of the 81st residue may also play a role in the sensor's performance due to differences in ligand polarities caused by the different number of hydroxyl groups. […] To test this prediction, A81 was mutated and each mutant was paired with the promiscuous wild-type TynA (see e.g., FIG. 5B). Consistent with the predictions, A81L, A81P, A81 I, and A81N were identified as PEA-specific variants, with 580-fold induction for the A81L sensor (see e.g., FIG. 5C). […] As predicted a clear pattern between the identity of residue 81 and ligand selectivity was observed (see e.g., FIG. 5D, TABLE 3).
as §1

[4] abbreviates: wild-type TyrR, pAGR010, FIG. 1C, 8 h.
Where [5] appears, read: pAGR473, FIG. 2G, 8 h, repressible.

Several values for one entry are separate records, joined by “and”; a condition that tells them apart may be missing. Equal values may be shown once. Entries after “also recorded” stand apart in the source; their conditions may differ.

T3 sequence (P07604 whole entry R10F): as the sequence (P07604 whole entry T14V/E274Q) above, with R10F, V14T, Q274E counted along it
T2 sequence (P07604 whole entry): as the sequence (P07604 whole entry T14V/E274Q) above, with V14T, Q274E counted along it

`O=C(O)Cc1c[nH]c2ccccc12` [IAA, indole-3-acetic acid]: in test [1], the “response of the sensors” value was “No sensors significantly responded”.

As to `N[C@@H](Cc1ccc(O)cc1)C(=O)O` [Tyrosine, tyrosine], the response result in test [2] and in test [3] was “lack of response” in each case. In addition, the “response of PtyrP” value on E274Q+T14V TyrR and at E274Q+D103S TyrR was “lack of response; also recorded: no apparent response” each time. Further, the “fold repression of PtyrP” value at wild-type TyrR (overexpression of wild-type TyrR) was 59 fold; at R10F TyrR (independent of the presence of Phe, listed as Tyr) it was ~12 fold and 15 fold. In addition, the Fmax worked out at 2470 on wild-type TyrR (setting [4]) and 3210 at R10F TyrR (setting [5]). Also, the figures for the Fmin at wild-type TyrR (setting [4]) and at R10F TyrR (setting [5]) were 38.1 and 279, respectively. In addition, the “n (Hill coefficient)” value was determined as 1.9 on wild-type TyrR (setting [4]) and 2.3 at R10F TyrR (setting [5]). Besides, the EC50 at wild-type TyrR (wild-type TyrR, pAGR010, FIG. 1C, 8 h, read-out: KA (half maximal constant)) is 26 µM; on R10F TyrR (KA (half maximal constant), pAGR473, FIG. 2G, 8 h, repressible) it was 50 µM and 47 µM.

Take `O=C(O)Cc1ccc(O)c(O)c1` [DOPAC, 3,4-dihydroxyphenylacetic acid]: in test [1], the “response of the sensors” value is listed as “No sensors significantly responded”.

In the case of `O=C(O)Cc1ccccc1` [PAA, phenylacetic acid], the “response of the sensors” value in test [1] is “No sensors significantly responded”.

On to `O=C(O)Cc1ccc(O)cc1` [HPAA, 4-hydroxyphenylacetic acid], for which the “response of the sensors” value in test [1] is given as “No sensors significantly responded”.

B1: Leucine (L): FeaR variant with leucine in the 81st position, paired with wild-type TynA (protein, UniProt Q47129 1-301, looked up, variant A81L)
Transcriptional activator FeaR: MNPAVDNEFQQWLSQINQVCGNFTGRLLTERYTGVLDTHFAKGLKLSTVTTSGVNLSRTWQEVKGSDDAWFYTVFQLSGQLIMEQDERQVQIGAGDITLLDASRPCSLYWQESSKQISLLLPRTLLEQYFPHQKPICAERLDADLPMVQLSHRLLQESMNNPALSETESEAALQAMVCLLRPVLHQRESVQPRRERQFQKVVTLIDDNIREEILRPEWIAGETGMSVRSLYRMFADKGLVVAQYIRNRRLDFCADAIRHAADDEKLAGIGFHWGFSDQSHFSTVFKQRFGMTPGEYRRKFR
On to B1, for which, in the test with PtynA, the Phenotype result was “PEA specific” and the Selectivity entry is recorded as “PEA only”.

B2: Glutamine (Q): FeaR variant with glutamine in the 81st position, paired with wild-type TynA (protein, UniProt Q47129 1-301, looked up, variant A81Q)
Transcriptional activator FeaR: MNPAVDNEFQQWLSQINQVCGNFTGRLLTERYTGVLDTHFAKGLKLSTVTTSGVNLSRTWQEVKGSDDAWFYTVFQLSGQQIMEQDERQVQIGAGDITLLDASRPCSLYWQESSKQISLLLPRTLLEQYFPHQKPICAERLDADLPMVQLSHRLLQESMNNPALSETESEAALQAMVCLLRPVLHQRESVQPRRERQFQKVVTLIDDNIREEILRPEWIAGETGMSVRSLYRMFADKGLVVAQYIRNRRLDFCADAIRHAADDEKLAGIGFHWGFSDQSHFSTVFKQRFGMTPGEYRRKFR
On to B2, for which, in the test on PtynA, the Phenotype entry is recorded as “No activity” and the Selectivity result is given as “No activity”.

B3: Phenylalanine (F): FeaR variant with phenylalanine in the 81st position, paired with wild-type TynA (protein, UniProt Q47129 1-301, looked up, variant A81F)
Transcriptional activator FeaR: MNPAVDNEFQQWLSQINQVCGNFTGRLLTERYTGVLDTHFAKGLKLSTVTTSGVNLSRTWQEVKGSDDAWFYTVFQLSGQFIMEQDERQVQIGAGDITLLDASRPCSLYWQESSKQISLLLPRTLLEQYFPHQKPICAERLDADLPMVQLSHRLLQESMNNPALSETESEAALQAMVCLLRPVLHQRESVQPRRERQFQKVVTLIDDNIREEILRPEWIAGETGMSVRSLYRMFADKGLVVAQYIRNRRLDFCADAIRHAADDEKLAGIGFHWGFSDQSHFSTVFKQRFGMTPGEYRRKFR
Regarding B3, in the test on PtynA, the Phenotype entry is on record as “No activity” and the Selectivity entry is “No activity”.
